ChEMBL document CHEMBL1201862, “PubChem BioAssay data set” (2004)
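Compound exposure: 48 hours, 5 concentrations, 96-well plates. GI50: concentration for 50% inhibition of growth.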 Activity calls are given as the source filed them. Rule as the data show it: active = GI50 up to about 1.1 µM and inactive = higher.

Assays:
Experiment in all cases: NCI-60 cell line screen, 48 h
786-0 = test system: 786-0
HCT-116 = test system: HCT-116
IGROV-1 = test system: IGROV-1
LOX IMVI = test system: LOX IMVI
MCF7 = test system: MCF7
NCI-H23 = test system: NCI-H23
NCI/ADR-RES = test system: NCI/ADR-RES
OVCAR-3 = test system: OVCAR-3
RPMI-8226 = test system: RPMI-8226
SF-295 = test system: SF-295
SF-539 = test system: SF-539
SK-MEL-28 = test system: SK-MEL-28
SK-MEL-2 = test system: SK-MEL-2
SN12C = test system: SN12C
SNB-19 = test system: SNB-19
TK-10 = test system: TK-10
UACC-257 = test system: UACC-257
UACC-62 = test system: UACC-62
ACHN = test system: ACHN
K562 = test system: K562

With C/C=C/COc1cc(NC(=S)c2ccoc2C)ccc1OC the GI50 (786-0) was 75.3 µM (inactive), the GI50 (HCT-116) was > 100 µM (inactive) and the GI50 (IGROV-1) was 55.2 µM (inactive). For the same compound, the GI50 (LOX IMVI) was > 100 µM (inactive), the GI50 (MCF7) was > 100 µM (inactive) and the GI50 (NCI-H23) was > 100 µM (inactive). The GI50 (NCI/ADR-RES) was 39.4 µM (inactive), the GI50 (OVCAR-3) was 50.2 µM (inactive) and the GI50 (RPMI-8226) was 23 µM (inactive). For the same compound, the GI50 (SF-295) was 77.8 µM (inactive), the GI50 (SF-539) was 76.7 µM (inactive) and the GI50 (SK-MEL-28) was > 100 µM (inactive). For the same compound, the GI50 (SK-MEL-2) was > 100 µM (inactive), the GI50 (SN12C) was 62.1 µM (inactive) and the GI50 (SNB-19) was 26.7 µM (inactive). The GI50 (TK-10) was 97.1 µM (inactive), the GI50 (UACC-257) was > 100 µM (inactive) and the GI50 (UACC-62) was > 100 µM (inactive).

With CCOC(=O)c1cc2cc3c4c(c2oc1=O)CCCN4CCC3 the GI50 (786-0) was 40 µM (inactive), the GI50 (ACHN) was 34 µM (inactive) and the GI50 (HCT-116) was 27 µM (inactive). For the same compound, the GI50 (IGROV-1) was 27.2 µM (inactive), the GI50 (K562) was 38.3 µM (inactive) and the GI50 (LOX IMVI) was 26.1 µM (inactive). The GI50 (MCF7) was 23.2 µM (inactive), the GI50 (NCI-H23) was 30.1 µM (inactive) and the GI50 (NCI/ADR-RES) was 22.2 µM (inactive). For the same compound, the GI50 (OVCAR-3) was 29.9 µM (inactive), the GI50 (RPMI-8226) was 19.3 µM (inactive) and the GI50 (SF-295) was 40.4 µM (inactive). For the same compound, the GI50 (SF-539) was 23.5 µM (inactive), the GI50 (SK-MEL-28) was 43.4 µM (inactive) and the GI50 (SK-MEL-2) was 24.7 µM (inactive). The GI50 (SN12C) was 30.8 µM (inactive), the GI50 (SNB-19) was 42.6 µM (inactive) and the GI50 (TK-10) was 21.6 µM (inactive). For the same compound, the GI50 (UACC-257) was 49.5 µM (inactive).

In the case of COc1cc2cc(C(=O)N3CC(COS(C)(=O)=O)c4ccc(NC(=O)OCc5ccccc5)cc43)[nH]c2c(OC)c1OC (stereo not given), the GI50 (786-0) is reported as > 100 µM (inactive), the GI50 (ACHN) is reported as > 100 µM (inactive) and the GI50 (HCT-116) is reported as > 100 µM (inactive). For the same compound, the GI50 (IGROV-1) was > 100 µM (inactive), the GI50 (K562) was > 100 µM (inactive) and the GI50 (LOX IMVI) was > 100 µM (inactive). The GI50 (MCF7) was 0.55 µM (active), the GI50 (NCI-H23) was 17 µM (inactive) and the GI50 (NCI/ADR-RES) was > 100 µM (inactive). The GI50 (OVCAR-3) was > 100 µM (inactive), the GI50 (SF-295) was > 100 µM (inactive) and the GI50 (SF-539) was > 100 µM (inactive). The GI50 (SK-MEL-28) was > 100 µM (inactive), the GI50 (SK-MEL-2) was 67.1 µM (inactive) and the GI50 (SN12C) was > 100 µM (inactive). The GI50 (SNB-19) was > 100 µM (inactive), the GI50 (TK-10) was > 100 µM (inactive) and the GI50 (UACC-257) was > 100 µM (inactive). The GI50 (UACC-62) was > 100 µM (inactive).

CSC1=C(SC)SC(=C2SC3=C(SC(=C4SCCS4)S3)S2)S1 was tested, and the GI50 (786-0) was > 100 µM (inactive), the GI50 (ACHN) was > 100 µM (inactive) and the GI50 (HCT-116) was > 100 µM (inactive). For the same compound, the GI50 (IGROV-1) was > 100 µM (inactive), the GI50 (LOX IMVI) was > 100 µM (inactive) and the GI50 (MCF7) was > 100 µM (inactive). The GI50 (NCI-H23) was > 100 µM (inactive), the GI50 (NCI/ADR-RES) was > 100 µM (inactive) and the GI50 (OVCAR-3) was > 100 µM (inactive). For the same compound, the GI50 (RPMI-8226) was > 100 µM (inactive), the GI50 (SF-295) was > 100 µM (inactive) and the GI50 (SF-539) was > 100 µM (inactive). For the same compound, the GI50 (SK-MEL-28) was > 100 µM (inactive), the GI50 (SK-MEL-2) was > 100 µM (inactive) and the GI50 (SN12C) was > 100 µM (inactive). The GI50 (SNB-19) was > 100 µM (inactive), the GI50 (TK-10) was > 100 µM (inactive) and the GI50 (UACC-257) was > 100 µM (inactive). The GI50 (UACC-62) was > 100 µM (inactive).

O=C(N/N=C/c1ccc([N+](=O)[O-])o1)c1ccc(C(=O)N/N=C/c2ccc([N+](=O)[O-])o2)cc1 was tested, and the GI50 (786-0) was 76.2 µM (inactive), the GI50 (ACHN) was 10.2 µM (inactive) and the GI50 (HCT-116) was 30.1 µM (inactive). The GI50 (IGROV-1) was 30.7 µM (inactive), the GI50 (K562) was 34.4 µM (inactive) and the GI50 (LOX IMVI) was 34.2 µM (inactive). For the same compound, the GI50 (MCF7) was 15.7 µM (inactive), the GI50 (NCI-H23) was 42.3 µM (inactive) and the GI50 (NCI/ADR-RES) was 73.3 µM (inactive). The GI50 (OVCAR-3) was 26.1 µM (inactive), the GI50 (RPMI-8226) was 2.55 µM (inactive) and the GI50 (SF-295) was 40.4 µM (inactive). The GI50 (SF-539) was 14.9 µM (inactive), the GI50 (SK-MEL-28) was 13.2 µM (inactive) and the GI50 (SK-MEL-2) was 74.5 µM (inactive). The GI50 (SN12C) was 42.8 µM (inactive), the GI50 (SNB-19) was 51.4 µM (inactive) and the GI50 (UACC-62) was 13.8 µM (inactive).

In the case of CC(C)[Si](OC1=C(C(=O)N(C)c2ccccc2Cl)CCCC1)(C(C)C)C(C)C, the GI50 (786-0) is reported as 17.1 µM (inactive), the GI50 (ACHN) is reported as 15.5 µM (inactive) and the GI50 (IGROV-1) is reported as 16.9 µM (inactive). For the same compound, the GI50 (K562) was 6.15 µM (inactive), the GI50 (LOX IMVI) was 15.7 µM (inactive) and the GI50 (MCF7) was 13.2 µM (inactive). The GI50 (NCI-H23) was 16.3 µM (inactive), the GI50 (NCI/ADR-RES) was 14.9 µM (inactive) and the GI50 (OVCAR-3) was 13.2 µM (inactive). For the same compound, the GI50 (RPMI-8226) was 10.3 µM (inactive), the GI50 (SF-295) was 7.52 µM (inactive) and the GI50 (SF-539) was 18 µM (inactive). The GI50 (SK-MEL-28) was 19 µM (inactive), the GI50 (SK-MEL-2) was 14.1 µM (inactive) and the GI50 (SNB-19) was 12.8 µM (inactive). For the same compound, the GI50 (TK-10) was 15.1 µM (inactive), the GI50 (UACC-257) was 10.2 µM (inactive) and the GI50 (UACC-62) was 15.7 µM (inactive).

For O=C(CC(Cl)=C(Cl)Cl)c1ccccc1, the GI50 (786-0) was 21.8 µM (inactive), the GI50 (ACHN) was 43.5 µM (inactive) and the GI50 (HCT-116) was 21.3 µM (inactive). The GI50 (IGROV-1) was 80 µM (inactive), the GI50 (K562) was 21.5 µM (inactive) and the GI50 (LOX IMVI) was 15 µM (inactive). For the same compound, the GI50 (MCF7) was > 100 µM (inactive), the GI50 (NCI-H23) was 81.1 µM (inactive) and the GI50 (NCI/ADR-RES) was 74.8 µM (inactive). The GI50 (OVCAR-3) was 27 µM (inactive), the GI50 (RPMI-8226) was 18 µM (inactive) and the GI50 (SF-295) was > 100 µM (inactive). For the same compound, the GI50 (SF-539) was > 100 µM (inactive), the GI50 (SK-MEL-28) was 55.7 µM (inactive) and the GI50 (SK-MEL-2) was > 100 µM (inactive). The GI50 (SNB-19) was > 100 µM (inactive), the GI50 (TK-10) was > 100 µM (inactive) and the GI50 (UACC-257) was 27.4 µM (inactive). The GI50 (UACC-62) was 37.5 µM (inactive).
